# In patent publication US20260273028A1, “PEROXIDASE COMPOSITIONS CONTAINING IMPROVED ENHANCING AGENTS” (FLEN HEALTH PHARMA NV, priority 2022, published 2026):
# Experiments:
# S. aureus (ATCC®6538™) = assay: Microbial challenge testing in alginogel with GOX+LPO; type: cell-based; conditions: for antimicrobial efficacy against S. aureus of halide alone, 0 vs 80 minute timepoint: alginogel, halide alone (without enzymes) 0.03% (v/v)
# Protocol: To determine the ability of an antimicrobial agent to elicit an antimicrobial preserving efficacy in a gel environment, a microbiological challenge test can be performed. Here, the antimicrobial agent is a combination of the natural enzymes GOX+LPO. […] Microbial challenge testing was performed according to the method described in the European Pharmacopoeia current version chapter 5.1.3 ‘Efficacy of antimicrobial preservation’, but with adapted time points (0, 10, 20, 30, 40, 50, 60, 70 and 80 min instead of 0, 2, 7, 14 and 28 days). In brief, for every enhancing agent to be evaluated, a lab-scale alginogel (based on the Flaminal® formulation, but without the original enhancer guaiacol) including 0.0075% GOX+LPO (1:1) was prepared according to standard practices. Enhancing agents were added to the alginogel in a final concentration ranging from 0.01 to 0,00025% (v/w). As a reference, an alginogel including 0.0075% GOX+LPO (1:1) without the addition of any enhancing agent was included (designated as: enzymes only). As a control, an alginogel without both GOX+LPO (1:1) enzyme solution and enhancing agent (designated as: empty gel) as well as an alginogel only containing the enhancing agent only (designated as: enhancing candidate only) were included. After preparation, a homogenous sample of 10 g was transferred into a 50 ml conical tube for each alginogel to be evaluated and microorganism to be tested. For each test microorganism, including S. aureus (ATCC®6538™), P. aeruginosa (ATCC®9027™), C. albicans (ATCC®10231™) and A. niger (ATCC®16404 ™), a microbial suspension of about 10^8 CFU/ml was prepared in sterile diluent (buffered sodium chloride-peptone solution). Then, the 50 ml conical tubes containing the alginogel samples to be evaluated were inoculated with 100 μl of the designated inoculum. At the start (time point 0) and after 0, 10, 20, 30, 40, 50, 60, 70 and 80 min, the number of viable microorganisms per gram product (expressed as CFU/g) was determined by transferring a sample of 0.5 g of the product into a 15 ml conical tube containing 4.5 ml of sterile diluent and applying general dilution and plate count techniques. For each combination evaluated, this test was repeated at least 1-3 times. The collected data were further analyzed in MS Excel. Mean absolute counts (expressed as log CFU/g) were visualized in a graph.
# The purpose of the hereby described experiment was to compare the efficacy of antimicrobial activity enhancement of the GOX+LPO (1:1) enzyme combination by ethanolamine and proline in a microbial challenge test using S. aureus. The test was set up as described in the section on ‘challenge testing’ in Example 2.4. The test was repeated at least 3 times.
# The purpose of the hereby described experiment was to compare the efficacy of antimicrobial activity of the GOX+LPO (1:1) enzyme combination in the presence of potassium chloride/potassium bromide and potassium iodide. A microbial challenge test using S. aureus was performed. The test was set up as described in the section on ‘challenge testing’ in Example 2.4.
# Lactoperoxidase = Lactoperoxidase (Bos taurus, UniProt P80025); assay: Lactoperoxidase (LPO) activity, spectrophotometric assay (ABTS); type: biochemical; conditions: concentration not given
# Protocol: Lactoperoxidase is a member of the heme peroxidase family of enzymes that, together with a catalytic anion (such as I^−, derived from KI, present in the substrate), will catalyse the oxidation of H2O2, leading to hypojodite (IO^−). This hypojodite is a reactive oxygen species (ROS). To measure the enzymatic activity of LPO, a standard spectrophotometric assay is performed. In brief, H2O2 combined with 2,2′-azino-bis (3-ethylbenzothiazoline-6-sulfonzuur (ABTS) is catalysed by LPO so that the formation of a coloured compound is achieved that can in turn be measured by spectrophotometry. LPO was tested in 3 different concentrations, i.e., 50, 10 and 1 mg/ml. Each reaction mixture was tested in duplo. In the event LPO activity was evaluated in the presence of a potentiator candidate (=a molecule that might be able to augment the enzymatic activity of LPO), the latter was added in a low and high concentration ranging from 100 to 0.1 mg/ml. The blank consisted of the reaction mix in which H2O2 was absent. The absorbance was immediately measured with a plate reader (Spectramax ID3, Molecular Devices) every 12 seconds for 5 minutes at 20° C. For each combination evaluated, this test was repeated at least 2 times. Results were further analysed in MS Excel and expressed as U/g. Mean blank-corrected data±SD were plotted. Statistical significance compared to the combination without potentiator candidate (reference) was calculated using students' t-tests. Significance is achieved when the obtained p-value is lower than 0,05. Significance levels were defined as p<0.05=*; p<0.01=** and p<0.001=***.
# GOX = GOX (Aspergillus niger, UniProt P13006); assay: Glucose oxidase (GOX) activity, spectrophotometric assay; type: biochemical; conditions: cysteine 1-0.1 mg/ml (FIG. 1)
# Protocol: The natural enzyme GOX is an oxidoreductase that catalyses the oxidation of glucose to gluconic acid and hydrogen peroxide (H2O2) in the presence of water and air. To measure the enzymatic activity of GOX, a standard spectrophotometric assay is performed. In brief, a second oxidoreductase enzyme, peroxidase, and a chromogenic oxygen acceptor, o-dianisidine, are added to the former reaction mix (GOX+glucose+water+air) so that the formation of a coloured compound is achieved that can in turn be measured by spectrophotometry. GOX was tested in 4 different concentrations, i.e., 100, 50, 10 and 1 mg/ml. Each reaction mixture was tested in duplo. In the event GOX activity was evaluated in the presence of a potentiator candidate (=a molecule that might be able to augment the enzymatic activity of GOX), the latter was added in a low and high concentration ranging from 100 to 0.1 mg/ml. The blank consisted of the reaction mix in which the enzymes were absent. After mixing all reaction elements, absorbance was immediately measured with a plate reader (Spectramax ID3, Molecular Devices) every minute for 5 minutes at 35° C. For each combination evaluated, this test was repeated at least 2 times. Results were further analysed in MS Excel and expressed as U/g. Mean blank-corrected data±SD were plotted. Statistical significance compared to the combination without potentiator candidate (reference) was calculated using students' t-tests. Significance is achieved when the obtained p-value is lower than 0,05. Significance levels were defined as p<0.05=*; p<0.01=** and p<0.001=***.
# [1] = tested on: Pseudomonas aeruginosa ATCC®9027™; assay: MIC determination, broth microdilution, GOX+LPO with potentiator candidate; type: cell-based; conditions: P. aeruginosa; guaiacol added as enhancing agent
# Protocol: (§1) The minimum inhibitory concentration (MIC) is defined as the lowest concentration of an antimicrobial agent that results in a complete inhibition of microbial growth (determined via visual evaluation or absorbance measurements) after overnight incubation. This endpoint measurement is used to define the microbial susceptibility towards an antimicrobial agent. Here, the antimicrobial agent is a combination of the natural enzymes GOX+LPO.
# (§2) To determine the MIC of the described combinations, a classical broth microdilution assay was used to determine the susceptibility of a series of microbes commonly detected in infected wounds, including (a) the Gram-positive bacterium Staphylococcus aureus ATCC® 6538™ (results shown below), (b) the Gram-negative bacterium Pseudomonas aeruginosa ATCC®9027™ (results shown below), (c) the yeast Candida albicans ATCC®10231™ (results shown below), and (d) the fungus Aspergillus niger ATCC®16404™ (results shown below). In brief, a […] serial dilution of the enzymatic GOX+LPO solution was prepared in a transparent, flat-bottomed 96-well test plate with final concentrations ranging from 0.005 to 0.00000977% (v/v). To each well, a fixed volume of the enzymatic substrate containing 3,3% (w/v) glucose and 0,084% (w/v) potassium iodide, as well as the microbial inoculum with an OD600 of 0.1 was added. In the event the enzyme combination was evaluated in the presence of a potentiator candidate, the latter was added together with the enzymatic substrate in a final concentration ranging from 100 to 0,00125% (v/v). For each combination evaluated, a blank (no addition of microbial inoculum) was included. Positive (inoculum only) and negative (background solution only) were included to evaluate the performance of the test and to select the enzymatic GOX+LPO concentration at which no microbial growth is detected (i.e., absorbance equal to that of the background solution only). Then, the 96-well test plate was incubated for 24 hours at 37° C. (S. aureus, P. aeruginosa and C. albicans) or 25° C. (A. niger). After incubation, the absorbance of each well was measured using a plate spectrophotometer (Spectramax ID3, Molecular Devices). For each combination evaluated, this test was repeated at least 5 times. The collected data were further analyzed in MS Excel. Mean absorbance data were visualized in a table format in which the MIC was highlighted.
# [2] = tested on: Staphylococcus aureus ATCC® 6538™; assay: as above; type: cell-based; conditions: S. aureus; guaiacol added as enhancing agent
# Protocol: as §1, §2
# [3] = tested on: Pseudomonas aeruginosa ATCC®9027™; assay: MBC determination, broth microdilution with CFU enumeration; type: cell-based; conditions: P. aeruginosa; guaiacol added as enhancing agent
# Protocol: The minimal bactericidal concentration (MBC) is defined as the lowest concentration of an antimicrobial agent that results in a complete killing of the microbial population (determined via standard CFU enumeration techniques) after overnight incubation. This endpoint measurement is used, together with the MIC (see above), to define the microbial susceptibility towards an antimicrobial agent. Here, the antimicrobial agent is a combination of the natural enzymes GOX+LPO.
# To determine the MBC of the described combinations, a classical broth microdilution assay combined with standard CFU enumeration techniques was used to determine the susceptibility of a series of microbes commonly detected in infected wounds, including (a) the Gram-positive bacterium Staphylococcus aureus ATCC® 6538™ (results shown below), (b) the Gram-negative bacterium Pseudomonas aeruginosa ATCC®9027™ (results shown below), (c) the yeast Candida albicans ATCC®10231™ (results shown below), and (d) the fungus Aspergillus niger ATCC®16404™ (results shown below). In brief, the broth microdilution assay was set up as previously described (see 2.1). After incubation, the MBC was determined by investigating the presence of viable microorganisms at the MIC and following higher concentrations (MICx2, MICx4, and so on) using standard CFU enumeration techniques. For each combination evaluated, this test was repeated at least 5 times. The collected data were further analyzed in MS Excel. Mean concentration data (expressed as log CFU/ml) were visualized in a table format in which the MBC was highlighted.
# GOX, sequence (P13006 17-605): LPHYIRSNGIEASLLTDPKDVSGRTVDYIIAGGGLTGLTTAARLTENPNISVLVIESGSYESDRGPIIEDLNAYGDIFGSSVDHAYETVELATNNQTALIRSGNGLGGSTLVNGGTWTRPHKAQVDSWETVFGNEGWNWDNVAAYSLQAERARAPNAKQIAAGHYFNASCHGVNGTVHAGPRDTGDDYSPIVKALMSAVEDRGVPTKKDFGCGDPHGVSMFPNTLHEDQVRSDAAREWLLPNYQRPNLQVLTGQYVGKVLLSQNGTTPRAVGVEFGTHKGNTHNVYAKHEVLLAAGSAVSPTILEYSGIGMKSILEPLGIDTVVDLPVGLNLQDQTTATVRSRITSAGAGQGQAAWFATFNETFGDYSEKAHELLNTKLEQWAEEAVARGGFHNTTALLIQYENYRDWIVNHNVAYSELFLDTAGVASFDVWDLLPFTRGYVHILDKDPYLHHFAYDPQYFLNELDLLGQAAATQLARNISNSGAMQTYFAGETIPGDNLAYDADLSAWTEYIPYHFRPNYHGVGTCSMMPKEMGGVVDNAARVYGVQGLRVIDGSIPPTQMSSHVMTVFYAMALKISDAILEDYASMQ
compound,measurement,setting,value
"[Cl-].[K+] [KCl, potassium chloride, reference compound]","antimicrobial efficacy against S. aureus of halide alone, 0 vs 80 minute timepoint",S. aureus (ATCC®6538™),did not result in any difference in antimicrobial efficacy
"[Br-].[K+] [KBr, potassium bromide, reference compound]","antimicrobial efficacy against S. aureus of halide alone, 0 vs 80 minute timepoint",S. aureus (ATCC®6538™),did not result in any difference in antimicrobial efficacy
"NCCO [ethanolamine, reference compound]",exposure time to complete reduction of absolute S. aureus counts (average),"S. aureus (ATCC®6538™); alginogel with GOX+LPO (1:1), enhancer 0,0005% (v/v)",70 min
"CC(C)C[C@H](N)C(=O)O [leucine, reference compound]",LPO activity compared to reference,Lactoperoxidase,did not result in a significant difference
"[I-].[K+] [KI, potassium iodide]",time to complete reduction of absolute S. aureus counts,"S. aureus (ATCC®6538™); alginogel with GOX+LPO (1:1), halide 0,03% (v/v)",70 min
same,time to complete reduction of absolute S. aureus counts,"S. aureus (ATCC®6538™); alginogel with GOX+LPO (1:1), halide 0,003% (v/v)",80 min
same,"antimicrobial efficacy against S. aureus of halide alone, 0 vs 80 minute timepoint",S. aureus (ATCC®6538™),did not result in any difference in antimicrobial efficacy
"N[C@@H](CS)C(=O)O [cysteine, reference compound]",GOX activity compared to reference,GOX,significant lower GOX activity
"COc1ccccc1O [guaiacol, reference compound]",MIC: GOX+LPO enzyme solution needed to completely inhibit growth,[1],0.00125 % (v/v)
same,MIC: GOX+LPO enzyme solution needed to completely inhibit growth,[2],0.0000781 % (v/v)
same,MBC: GOX+LPO enzyme solution needed,[3],0.00125 % (v/v)
